This is an account of results in the supplement of paper PMC7600603.

For test [1], the system named is DLD1 NRF2-WT. The conditions noted are these: 72 h; CellTiter-Glo viability. Put shortly: (§1)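 DLD1 colorectal cancer cells, an isogenic pair either NRF2 wild-type or carrying a CRISPR gain-of-function, were cultured in DMEM with 10% FBS and treated in 384-well plates with library compounds at 5 concentrations across a 10,000-fold range. CellTiter-Glo viability was read on a Pherastar FS reader after 72 h and normalised to vehicle wells and 100-μM positive-control wells. Four-parameter logistic dose-response fits were applied. EC50 and drug sensitivity score, a normalised area under the curve, were taken from these fits.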
For orientation: Cellular ATP, detected with luciferase, serves as a proxy for viable cell number.

In test [2] the test system is DLD1 NRF2-WT. The test is described as follows: drug sensitivity score (DSS) cytotoxicity (DSS score); higher = more toxic; extreme values may be limits of the assay. Conditions: 72 h; CellTox Green cytotoxicity. Put shortly:
(§2)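 After growth in DMEM with 10% FBS, NRF2 wild-type and CRISPR-edited isogenic DLD1 cells were seeded in 384-well plates and given library compounds at 5 concentrations across a 10,000-fold range. Fluorescence from CellTox Green was taken on a Pherastar FS reader after 72 h and normalised against vehicle wells and 100-μM positive-control wells. From logistic dose-response fits of cytotoxicity came the TC50 and the drug sensitivity score, a normalised area under the curve.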

For test [3], the system named is DLD1 NRF2-GOF. Described as above. Conditions: 72 h; CellTox Green cytotoxicity. The gist of the method:
as §2

In test [4] the test system is DLD1 NRF2-WT. The test is described as follows: drug sensitivity score (DSS) viability (DSS score); higher = more sensitive; extreme values may be limits of the assay. The conditions noted are these: 72 h; CellTiter-Glo viability. Put shortly:
as §1

The subject of test [5] is DLD1 NRF2-WT. The test is described as follows: TC50 cytotoxicity; higher = less toxic. The conditions noted are these: 72 h; CellTox Green cytotoxicity. Put shortly: as §2
The test system of test [6] is DLD1 NRF2-GOF. Description: TC50 cytotoxicity; higher = less toxic. Conditions: 72 h; CellTox Green cytotoxicity. Put shortly:
as §2

Regarding `CC[C@@H]1C(=O)N(C)c2cnc(Nc3ccc(C(=O)NC4CCN(C)CC4)cc3OC)nc2N1C1CCCC1` [BI 2536], the EC50 viability in the test on DLD1 NRF2-WT [1] was found to be 0.0052 µM. In addition, the drug sensitivity score with DLD1 NRF2-WT [2] amounted to 3.1; with DLD1 NRF2-GOF [3], 2.3; in the test on DLD1 NRF2-WT [4] it was 21.8. Also, the TC50 cytotoxicity in the test on DLD1 NRF2-WT [5] came out at 0.188 µM.
On to `O=C(CCNC(=O)c1ccc(OC(F)(F)F)cc1)N[C@@H]1CCCc2ccccc21` [ML390], for which, in the test on DLD1 NRF2-WT [1], the EC50 viability was above 50 µM. The drug sensitivity score stood at 0 in the test with DLD1 NRF2-WT [2], 0 in the test with DLD1 NRF2-GOF [3] and 1.9 in the test with DLD1 NRF2-WT [4]. The TC50 cytotoxicity in the test with DLD1 NRF2-WT [5] and with DLD1 NRF2-GOF [6] was above 50 µM throughout.
Regarding `CC(C)NC[C@@H](C(=O)N1CCN(c2ncnc3c2[C@H](C)C[C@H]3O)CC1)c1ccc(Cl)cc1` [Ipatasertib], the EC50 viability in the test on DLD1 NRF2-WT [1] was above 10 µM. The drug sensitivity score in the test with DLD1 NRF2-WT [2] is 0; in the test on DLD1 NRF2-GOF [3], 0; with DLD1 NRF2-WT [4], 1.3. In addition, the TC50 cytotoxicity in the test with DLD1 NRF2-WT [5] and with DLD1 NRF2-GOF [6] was above 10 µM in each case.
`CCCCCCCCCCCCCCCCOP(=O)([O-])OCC[N+](C)(C)C` [Miltefosine]: the EC50 viability in the test with DLD1 NRF2-WT [1] worked out at 7.67 µM. Moreover, the drug sensitivity score was found to be 11 with DLD1 NRF2-WT [2], 9.7 in the test on DLD1 NRF2-GOF [3] and 13.1 in the test with DLD1 NRF2-WT [4]. Also, the TC50 cytotoxicity amounted to 7.4 µM in the test with DLD1 NRF2-WT [5] and 10.4 µM in the test with DLD1 NRF2-GOF [6].
Regarding `Nc1cc(F)ccc1NC(=O)c1ccc(CNC(=O)/C=C/c2cccnc2)cc1` [Chidamide], the EC50 viability in the test on DLD1 NRF2-WT [1] was above 10 µM. Further, the drug sensitivity score came to 0 in the test on DLD1 NRF2-WT [2], 0 in the test with DLD1 NRF2-GOF [3] and 0.6 in the test with DLD1 NRF2-WT [4]. Moreover, the TC50 cytotoxicity in the test with DLD1 NRF2-WT [5] and in the test on DLD1 NRF2-GOF [6] was above 10 µM in each case.
In the case of `O=C(Nc1cccc(NC(=O)c2cccc(O)c2O)c1)c1cccc(O)c1O` [MST-312], the EC50 viability in the test with DLD1 NRF2-WT [1] came to 0.238 µM. Moreover, the figures for the drug sensitivity score with DLD1 NRF2-WT [2], with DLD1 NRF2-GOF [3] and in the test on DLD1 NRF2-WT [4] were 0, 0 and 10.4, respectively. Moreover, the TC50 cytotoxicity in the test with DLD1 NRF2-WT [5] and in the test on DLD1 NRF2-GOF [6] was above 10 µM in each case.
`COc1ccc(-c2nc(N3CCOCC3)c3sc(CN(C)c4ncc(C(=O)NO)cn4)cc3n2)cn1` [CUDC-907]: the EC50 viability with DLD1 NRF2-WT [1] was 0.0334 µM. Further, the values for the drug sensitivity score in the test on DLD1 NRF2-WT [2], with DLD1 NRF2-GOF [3] and in the test with DLD1 NRF2-WT [4] were 14.6, 6.9 and 29.8, respectively. The TC50 cytotoxicity was 0.105 µM in the test with DLD1 NRF2-WT [5] and 0.509 µM with DLD1 NRF2-GOF [6].
`CC/C(=C(\c1ccccc1)c1ccc(OCCN(C)C)cc1)c1ccccc1` [Tamoxifen] came in with an EC50 viability in the test on DLD1 NRF2-WT [1] of 4.36 µM. Also, the drug sensitivity score is 0 in the test on DLD1 NRF2-WT [2], 0 with DLD1 NRF2-GOF [3] and 2 in the test on DLD1 NRF2-WT [4]. The TC50 cytotoxicity in the test with DLD1 NRF2-WT [5] and in the test with DLD1 NRF2-GOF [6] was above 10 µM throughout.
Take `CNC(=O)c1ccccc1Sc1ccc2c(/C=C/c3ccccn3)n[nH]c2c1` [Axitinib]: in the test on DLD1 NRF2-WT [1], the EC50 viability stood at 3.39 µM. Besides, the drug sensitivity score was found to be 0.3 in the test with DLD1 NRF2-WT [2], 0 in the test on DLD1 NRF2-GOF [3] and 2.4 in the test on DLD1 NRF2-WT [4]. Further, the TC50 cytotoxicity in the test on DLD1 NRF2-WT [5] and in the test with DLD1 NRF2-GOF [6] was above 10 µM each time.
Take `O=C(c1ccc(F)c(F)c1Nc1ccc(I)cc1F)N1CC(O)([C@@H]2CCCCN2)C1` [Cobimetinib]: the EC50 viability with DLD1 NRF2-WT [1] was determined as 0.207 µM. The compound also registered a drug sensitivity score in the test on DLD1 NRF2-WT [4] of 3.
In the test on DLD1 NRF2-WT [1], `CC[C@]1(O)C[C@H]2CN(CCc3c([nH]c4ccccc34)[C@@](C(=O)OC)(c3cc4c(cc3OC)N(C)[C@H]3[C@@](O)(C(=O)OC)[C@H](OC(C)=O)[C@]5(CC)C=CCN6CC[C@]43[C@@H]65)C2)C1` [Vinblastine] came in with an EC50 viability of 0.0052 µM. The drug sensitivity score in the test on DLD1 NRF2-WT [2] is 4.1; with DLD1 NRF2-GOF [3], 3.4; in the test on DLD1 NRF2-WT [4] it was 22.5. The compound further displayed a TC50 cytotoxicity in the test with DLD1 NRF2-GOF [6] above 1 µM.
On to `N#Cc1ccc(COC[C@H]2O[C@@H](n3c(NCc4ccc(Cl)c(Cl)c4)nc4c(N)ncnc43)[C@H](O)[C@@H]2O)cc1`, for which the values for the drug sensitivity score in the test with DLD1 NRF2-WT [2], in the test with DLD1 NRF2-GOF [3] and in the test on DLD1 NRF2-WT [4] were 0, 0 and 3.2, respectively. The TC50 cytotoxicity with DLD1 NRF2-WT [5] and with DLD1 NRF2-GOF [6] was above 10 µM in each case.
With `CC(C)n1cnc2c(NCCc3ccc(O)cc3)nc(-c3csc4ccccc34)nc21` [StemRegenin 1], the EC50 viability in the test with DLD1 NRF2-WT [1] was 0.855 µM. Further, the drug sensitivity score in the test on DLD1 NRF2-WT [4] is 3.9.
Turning to `CO[C@H]1C[C@@H]2CC[C@@H](C)[C@@](O)(O2)C(=O)C(=O)N2CCCC[C@H]2C(=O)O[C@H]([C@H](C)C[C@@H]2CC[C@@H](O)[C@H](OC)C2)CC(=O)[C@H](C)/C=C(\C)[C@@H](O)[C@@H](OC)C(=O)[C@H](C)C[C@H](C)/C=C/C=C/C=C/1C` [Sirolimus], the drug sensitivity score with DLD1 NRF2-WT [4] is 3.1.
On to `CC(C)N(CCCNC(=O)Nc1ccc(C(C)(C)C)cc1)C[C@H]1O[C@@H](n2cc(Br)c3c(N)ncnc32)[C@H](O)[C@@H]1O` [SGC0946], for which the drug sensitivity score with DLD1 NRF2-WT [2] turned out to be 0; in the test with DLD1 NRF2-GOF [3] it was 0; with DLD1 NRF2-WT [4], 0.9. Further, the TC50 cytotoxicity in the test on DLD1 NRF2-WT [5] and in the test with DLD1 NRF2-GOF [6] was above 10 µM each time.
`Cc1cc(OCc2nnc(SC3CCCC3)n2-c2cccnc2)ccc1-c1ccc(S(C)(=O)=O)cc1` [NMS-873] came in with an EC50 viability in the test on DLD1 NRF2-WT [1] of 0.273 µM. The compound further showed a drug sensitivity score in the test on DLD1 NRF2-WT [4] of 5.5.
Turning to `CCN(CC)CCNC(=O)c1c(C)[nH]c(/C=C2\C(=O)Nc3ccc(-c4csc(-c5ccccc5)n4)cc32)c1C` [Amcasertib], the drug sensitivity score in the test with DLD1 NRF2-WT [2] and with DLD1 NRF2-GOF [3] was 0 each time. The TC50 cytotoxicity in the test on DLD1 NRF2-WT [5] and in the test with DLD1 NRF2-GOF [6] was above 10 µM each time.
For `Nc1nc(Nc2ccc3c(c2)CC[C@@H](N2CCCC2)CC3)nn1-c1cc2c(nn1)-c1ccccc1CCC2` [BGB324], the drug sensitivity score in the test on DLD1 NRF2-WT [2] and with DLD1 NRF2-GOF [3] was 0 throughout. Further, the TC50 cytotoxicity in the test with DLD1 NRF2-WT [5] and in the test on DLD1 NRF2-GOF [6] was above 10 µM in each case.
In the case of `CC(C)[C@@H](CS(=O)(=O)C(C)C)N1C(=O)[C@@](C)(CC(=O)O)C[C@H](c2cccc(Cl)c2)[C@H]1c1ccc(Cl)cc1` [AMG-232], the drug sensitivity score in the test on DLD1 NRF2-WT [2] and in the test on DLD1 NRF2-GOF [3] was 0 in each case. The TC50 cytotoxicity in the test on DLD1 NRF2-WT [5] and in the test on DLD1 NRF2-GOF [6] was above 10 µM in each case.
`C[C@]12CC[C@H](O)CC1=CC[C@@H]1[C@@H]2CC[C@]2(C)C(c3cccnc3)=CC[C@@H]12` [Abiraterone]: the drug sensitivity score in the test on DLD1 NRF2-WT [2] and in the test with DLD1 NRF2-GOF [3] was 0 throughout. The TC50 cytotoxicity with DLD1 NRF2-WT [5] and in the test with DLD1 NRF2-GOF [6] was above 5 µM each time.
As to `O=C(/C=C\n1cnc(-c2cc(C(F)(F)F)cc(C(F)(F)F)c2)n1)NNc1ccccn1` [Verdinexor], the drug sensitivity score in the test with DLD1 NRF2-WT [2] and in the test with DLD1 NRF2-GOF [3] was 0 each time. Also, the TC50 cytotoxicity in the test with DLD1 NRF2-WT [5] and in the test with DLD1 NRF2-GOF [6] was above 1 µM each time.
Turning to `Cc1cc(Nc2nc(N[C@@H](C)c3ncc(F)cn3)ncc2Cl)[nH]n1` [AZD1480], the drug sensitivity score with DLD1 NRF2-WT [2] and in the test on DLD1 NRF2-GOF [3] was 0 in each case. Also, the TC50 cytotoxicity with DLD1 NRF2-WT [5] and with DLD1 NRF2-GOF [6] was above 1 µM each time.
Turning to `CCCCCOC(=O)Nc1nc(=O)n([C@@H]2O[C@H](C)[C@@H](O)[C@H]2O)cc1F` [Capecitabine], the drug sensitivity score in the test on DLD1 NRF2-WT [2] and with DLD1 NRF2-GOF [3] was 0 in each case. The TC50 cytotoxicity in the test on DLD1 NRF2-WT [5] and in the test with DLD1 NRF2-GOF [6] was above 10 µM each time.
With `CCCCNc1ncc(C(=O)NCc2ccc(-n3ccnc3)cc2)c(NC2CCC(O)CC2)n1` (configuration not stated) [UNC2881], the drug sensitivity score in the test with DLD1 NRF2-WT [2] and in the test with DLD1 NRF2-GOF [3] was 0 throughout. Moreover, the TC50 cytotoxicity in the test on DLD1 NRF2-WT [5] and in the test on DLD1 NRF2-GOF [6] was above 2.5 µM in each case.
